Results from ChEMBL document CHEMBL4049403, “Oligo-aspartic acid conjugates with benzo[c][2,6]naphthyridine-8-carboxylic acid scaffold as picomolar inhibitors of CK2” (Bioorg Med Chem, 2017).

Biological target: Albumin (Bos taurus, UniProt P02769)
Assay: Binding affinity to bovine serum albumin by fluorescence anisotropy based method
Type: ADME

Albumin, sequence (P02769 whole entry): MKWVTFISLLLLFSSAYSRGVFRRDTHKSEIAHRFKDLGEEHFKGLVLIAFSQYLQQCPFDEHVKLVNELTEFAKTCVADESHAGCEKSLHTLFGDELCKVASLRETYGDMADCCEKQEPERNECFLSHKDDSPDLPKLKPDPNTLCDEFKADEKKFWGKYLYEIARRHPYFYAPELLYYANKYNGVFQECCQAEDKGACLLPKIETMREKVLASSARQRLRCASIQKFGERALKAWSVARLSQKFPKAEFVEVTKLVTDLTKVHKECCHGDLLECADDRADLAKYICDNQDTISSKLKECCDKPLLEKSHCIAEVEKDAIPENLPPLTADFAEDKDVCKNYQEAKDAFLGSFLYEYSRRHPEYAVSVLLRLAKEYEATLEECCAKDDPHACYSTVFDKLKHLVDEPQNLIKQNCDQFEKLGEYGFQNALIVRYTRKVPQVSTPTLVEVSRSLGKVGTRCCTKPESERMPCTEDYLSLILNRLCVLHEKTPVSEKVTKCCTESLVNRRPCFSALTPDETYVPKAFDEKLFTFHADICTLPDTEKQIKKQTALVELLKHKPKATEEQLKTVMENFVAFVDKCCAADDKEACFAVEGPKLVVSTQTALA

| Kd | Compound |
| --- | --- |
| 1700 nM | CCN1c2cc(S(=O)(=O)O)ccc2\C(=C/C=C/C=C/C2=[N+](CC)c3ccc(S(=O)(=O)[O-])cc3C2(C)C)C1(C)CCCC(=O)NCCCC[C@H](NC(=O)[C@H](CC(=O)O)NC(=O)[C@H](CC(=O)O)NC(=O)[C@H](CC(=O)O)NC(=O)[C@H](CC(=O)O)NC(=O)[C@H](CC(=O)O)NC(=O)[C@H](CC(=O)O)NC(=O)CCCCCCCn1cnc2c(Br)c(Br)c(Br)c(Br)c21)C(=O)O (some centres not stated) |
| > 50000 nM | CCN1c2cc(S(=O)(=O)O)ccc2\C(=C/C=C/C=C/C2=[N+](CC)c3ccc(S(=O)(=O)[O-])cc3C2(C)C)C1(C)CCCC(=O)NCCCC[C@H](NC(=O)CCCCCCCCOc1nc2cc(C(=O)O)ccc2c2cnccc12)C(=O)N[C@@H](CC(=O)O)C(=O)N[C@@H](CC(=O)O)C(=O)N[C@@H](CC(=O)O)C(=O)N[C@@H](CC(=O)O)C(=O)O (some centres not stated) |
